Measurements: ChEMBL document CHEMBL1133258, “Synthesis and evaluation of quinoxalinones as HIV-1 reverse transcriptase inhibitors” (Bioorg Med Chem Lett, 2000)

Assays:
[1] = target: Human immunodeficiency virus type 1 reverse transcriptase (Human immunodeficiency virus 1, UniProt Q72547); test: Inhibitory concentration for 50% inhibition of HIV-1 reverse transcriptase
[2] = target: Human immunodeficiency virus type 1 reverse transcriptase (Human immunodeficiency virus 1) (UniProt Q72547)
Description: Inhibitory concentration for 90% inhibition of HIV-1 reverse transcriptase, whole cell based antiviral assay

Row | SMILES | IC50 [1] | IC90 [2]
1 | O=C1Nc2ccccc2N(CC2CC2)C1(C#CC1CC1)C(F)(F)F (stereo in doubt; 6z) [listing 1 of 2 here] | 0.127 µM | 
2 | O=C1Nc2ccccc2N(CC2CC2)C1(C#CC1CC1)C(F)(F)F (stereo in doubt; 6a) [listing 1 of 2 here] |  | 0.017 µM
3 | COC(=O)N1c2ccccc2NC(=O)C1(C#CC1CC1)C(F)(F)F (stereo unspecified) | 0.504 µM | 0.044 µM
4 | CCCCOC(=O)N1c2ccccc2NC(=O)C1(C#CC1CC1)C(F)(F)F (stereo unspecified) | 0.672 µM | 0.105 µM
5 | O=C1Nc2ccccc2N(Cc2ccccc2)C1(C#CC1CC1)C(F)(F)F (stereo unspecified) | 1.82 µM | 0.021 µM
6 | C=CCN1c2cc(Cl)ccc2NC(=O)C1(C#CC1CC1)C(F)(F)F (stereo unspecified) | 0.65 µM | 0.085 µM
7 | CCOC(=O)N1c2ccccc2NC(=O)C1(C#CC1CC1)C(F)(F)F (stereo in doubt) [listing 1 of 2 here] | 0.045 µM | 
8 | CCOC(=O)N1c2cc(F)ccc2NC(=O)C1(C#CC1CC1)C(F)(F)F (stereo unspecified) | 0.121 µM | 0.008 µM
9 | C=CCN1c2ccccc2NC(=O)C1(C#CC1CC1)C(F)(F)F (stereo unspecified) | 0.601 µM | 0.022 µM
10 | CCOC(=O)N1c2ccccc2NC(=O)C1(C#CC1CC1)C(F)(F)F (stereo in doubt; 6m) [listing 1 of 2 here] | 0.118 µM | 
11 | C=CCN1c2cc(F)ccc2NC(=O)C1(C#CC1CC1)C(F)(F)F (stereo unspecified) | 0.124 µM | 0.021 µM
12 | CCCS(=O)(=O)N1c2ccccc2NC(=O)C1(C#CC1CC1)C(F)(F)F (stereo unspecified) | > 5 µM | > 1 µM
13 | C=CCOC(=O)N1c2ccccc2NC(=O)C1(C#CC1CC1)C(F)(F)F (stereo unspecified) | 0.147 µM | 0.03 µM
14 | O=C1Nc2ccccc2N(CC2CC2)C1(C#CC1CC1)C(F)(F)F (stereo in doubt; 6z) [listing 2 of 2 here] |  | 0.011 µM
15 | O=C(c1ccccc1)N1c2ccccc2NC(=O)C1(C#CC1CC1)C(F)(F)F (stereo unspecified) | > 5 µM | > 1 µM
16 | CC(C)C(I)N1c2ccccc2NC(=O)C1(C#CC1CC1)C(F)(F)F (stereo unspecified) | 0.16 µM | 0.019 µM
17 | COc1ccc2c(c1)N(CC1CC1)C(C#CC1CC1)(C(F)(F)F)C(=O)N2 (stereo unspecified) | 0.109 µM | 0.019 µM
18 | CC(C)CN1c2cc(Cl)ccc2NC(=O)C1(C#CC1CC1)C(F)(F)F (stereo unspecified) | 0.404 µM | 0.052 µM
19 | O=C1Nc2ccccc2N(CCC2CC2)C1(C#CC1CC1)C(F)(F)F (stereo unspecified) | 0.34 µM | 0.032 µM

Row | SMILES | IC50 [1] | IC90 [2]
20 | CC(C)COC(=O)N1c2ccccc2NC(=O)C1(C#CC1CC1)C(F)(F)F (stereo unspecified) | 1.14 µM | 0.158 µM
21 | CCOC(=O)N1c2ccccc2NC(=O)C1(C#CC1CC1)C(F)(F)F (stereo in doubt; 6m) [listing 2 of 2 here] |  | 0.009 µM
22 | C#CCN1c2ccccc2NC(=O)C1(C#CC1CC1)C(F)(F)F (stereo unspecified) | 1.81 µM | 0.053 µM
23 | CC[C@H]1C(=O)Nc2ccc(F)cc2N1C(=O)OC(C)C [OPAVIRALINE] | 0.179 µM | 0.011 µM
24 | CCS(=O)(=O)N1c2ccccc2NC(=O)C1(C#CC1CC1)C(F)(F)F (stereo unspecified) | > 5 µM | > 1 µM
25 | O=C1Nc2ccc(F)cc2N(CC2CC2)C1(C#CC1CC1)C(F)(F)F (stereo unspecified) | 0.263 µM | 0.023 µM
26 | CC(C)S(=O)(=O)N1c2ccccc2NC(=O)C1(C#CC1CC1)C(F)(F)F (stereo unspecified) | > 5 µM | > 1 µM
27 | C=C(C)OC(=O)N1c2ccccc2NC(=O)C1(C#CC1CC1)C(F)(F)F (stereo unspecified) | 0.169 µM | 0.011 µM
28 | C=CCN1c2cc(OC)ccc2NC(=O)C1(C#CC1CC1)C(F)(F)F (stereo unspecified) | 0.123 µM | 0.029 µM
29 | O=C1Nc2ccccc2N(CC2CC2)C1(C#CC1CC1)C(F)(F)F (stereo in doubt; 6a) [listing 2 of 2 here] | 0.253 µM | 
30 | CCOC(=O)N1c2cc(Cl)ccc2NC(=O)C1(C#CC1CC1)C(F)(F)F (stereo unspecified) | 0.127 µM | 0.011 µM
31 | CC(C)OC(=O)N1c2ccccc2NC(=O)C1(C#CC1CC1)C(F)(F)F (stereo unspecified) | 0.108 µM | 0.015 µM
32 | O=C1Nc2ccc(Cl)cc2N(CC2CC2)C1(C#CC1CC1)C(F)(F)F (stereo unspecified) | 0.329 µM | 0.027 µM
33 | C=C(C)OC(=O)N1c2cc(F)ccc2NC(=O)C1(C#CC1CC1)C(F)(F)F (stereo unspecified) | 0.183 µM | 0.008 µM
34 | C=C(C)OC(=O)N1c2cc(Cl)ccc2NC(=O)C1(C#CC1CC1)C(F)(F)F (stereo unspecified) | 0.315 µM | 0.015 µM
35 | CC(C)OC(=O)N1c2cc(F)ccc2NC(=O)C1(C#CC1CC1)C(F)(F)F (stereo unspecified) | 0.13 µM | 0.009 µM
36 | CCOC(=O)N1c2ccccc2NC(=O)C1(C#CC1CC1)C(F)(F)F (stereo in doubt) [listing 2 of 2 here] |  | 0.0048 µM
37 | CC(C)OC(=O)N1c2cc(Cl)ccc2NC(=O)C1(C#CC1CC1)C(F)(F)F (stereo unspecified) | 0.16 µM | 0.019 µM
